Test system: cavernous nerve injury in rats
Test: Maximal intracavernous pressure after bilateral cavernous nerve freezing (Example 9, VENT)
Type: in vivo, rat
Settings: 3 months after bilateral cavernous nerve freezing, intracavernous injection
Method: Three months old Sprague-Dawley rats (N=30) were used: 6 underwent a sham operation; 24 underwent bilateral cavernous nerve freezing and then randomly divided into four groups of 6 each. The four groups of rats received intracavernous injection of one of the following: 1) phosphate buffered saline (PBS), 2) VEGF protein (4 μg), 3) adeno-associated virus (AAV)-BDNF, and 4). VEGF+AAV-BDNF. Erectile function was assessed by cavernous nerve electrostimulation 3 months later and samples of penile tissue were obtained for electron microscopy and immunohistochemical studies.

VEGF
maximal intracavernous pressure (MICP), mean±SEM: 37.33±3.29 cm H2O

Source: patent US7265091B2, “Methods and compositions for treating male erectile dysfunction” (The Regents of the University of California, priority 2000, dated 2007)
